# Laboratory results as given in patent US20240199564A1, “TRPM8 AGONISTS AS COOLING AGENTS AND FOR THE TREATMENT OF DISEASE” (Concentric Analgesics, Inc., priority 2021, published 2024).
# Where a name gives a salt, the structure may show the parent alone. Read-outs that look alike come from different tables or passages of the source.
# Tests used:
# [1] = Solution state stability assay; type: physicochemical; conditions: 50° C.; for % degradation at 28 days: HPLC; for aqueous stability / hydrolysis, comparison in words: buffer, 28 days
# Description: Compounds were incubated in the buffer media indicated (ingredients for making of PBS buffer and sodium citrate/citric acid buffer were obtained from Sigma-Aldrich, St. Louis, MO, USA). The reactions were conducted at either 50° C. and for 28 days. Samples were collected at specific time points and analyzed for % degradation of the parent compound based on UV/Vis analysis.
# Methods: Samples were weighed using a Mettler Toledo XS105 analytical balance (accurate to +/−0.01 mg). Accurate dilutions were made with a P1000, P200, or P20 Gilson Pipetman, or an Eppendorf Maxipettor 1-10 mL pipettor. pH Measurements were made with a Hanna Instruments HI 4222 pH meter and a Hanna instruments HI 1330B micro pH probe. Samples were analyzed via high pressure liquid chromatography using an Agilent series 1100 HPLC instrument with a Grace Alltima column. Chromatograms were manually integrated. Individual chromatograms are assigned an automatic HPLC identification number.
# Freshly prepared 1.0 mg/mL solution of each compound listed in Table # was allotted into two-dram clear glass vials. […] The vials were then stored in an oven set to 50° C. At the appropriate time points, the vials were removed from the oven, vortexed for 30 seconds and an aliquot (400 μL) was pipetted into an HPLC vial and quenched with 1% TFA in ACN (400 μL). […] For all samples, aliquots were taken after 28 days. Quenched vials were immediately analyzed via HPLC.
# [2] = target: T1, human TRPM8 receptor expressed in transfected 293H cells (Homo sapiens, UniProt Q7Z2W7); assay: TRPM8 Human Transient Potential Ion Channel Cell Based Agonist Calcium Flux Assay (FLIPR)
# T1 construct: expressed in transfected cells; host or cells: 293H cells
# T1 sequence (Q7Z2W7 whole entry): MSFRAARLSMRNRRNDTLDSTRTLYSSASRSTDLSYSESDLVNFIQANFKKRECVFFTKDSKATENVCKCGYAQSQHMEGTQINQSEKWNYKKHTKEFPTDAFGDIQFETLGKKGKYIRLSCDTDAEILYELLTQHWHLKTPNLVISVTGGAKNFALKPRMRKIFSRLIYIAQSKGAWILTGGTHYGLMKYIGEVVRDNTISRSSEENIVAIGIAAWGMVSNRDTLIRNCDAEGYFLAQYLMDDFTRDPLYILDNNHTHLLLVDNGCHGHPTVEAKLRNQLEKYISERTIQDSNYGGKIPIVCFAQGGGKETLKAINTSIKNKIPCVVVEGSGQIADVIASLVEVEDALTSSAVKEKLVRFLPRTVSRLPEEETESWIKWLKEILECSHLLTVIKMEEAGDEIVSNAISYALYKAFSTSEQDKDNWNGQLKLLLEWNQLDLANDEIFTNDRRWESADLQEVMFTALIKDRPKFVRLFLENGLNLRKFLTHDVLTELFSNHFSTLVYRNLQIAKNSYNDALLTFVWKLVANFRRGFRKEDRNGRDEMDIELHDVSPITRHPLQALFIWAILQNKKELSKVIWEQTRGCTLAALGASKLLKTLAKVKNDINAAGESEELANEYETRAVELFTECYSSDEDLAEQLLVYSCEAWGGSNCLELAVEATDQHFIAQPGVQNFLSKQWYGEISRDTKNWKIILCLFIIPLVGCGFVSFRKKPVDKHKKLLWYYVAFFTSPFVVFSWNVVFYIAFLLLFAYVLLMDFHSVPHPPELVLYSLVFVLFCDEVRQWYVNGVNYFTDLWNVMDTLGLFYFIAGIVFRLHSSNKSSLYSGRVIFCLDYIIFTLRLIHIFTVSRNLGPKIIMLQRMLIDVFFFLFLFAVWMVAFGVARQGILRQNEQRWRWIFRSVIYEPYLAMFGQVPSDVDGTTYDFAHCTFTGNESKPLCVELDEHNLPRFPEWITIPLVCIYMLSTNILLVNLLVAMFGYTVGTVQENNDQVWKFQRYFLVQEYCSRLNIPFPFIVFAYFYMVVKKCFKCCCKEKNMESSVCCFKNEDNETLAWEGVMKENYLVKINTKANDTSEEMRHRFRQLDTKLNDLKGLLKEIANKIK
# From the text: This example discloses results from TRPM8 Human Transient Potential Ion Channel Cell Based Agonist Calcium Flux Assay. Evaluation of the agonist activity of compounds at the human TRPM8 receptor expressed in transfected 293H cells, determined by measuring their effect on cytosolic Ca2+ ion mobilization using a fluorometric detection method.
# Protocol: The cells are suspended in DMEM buffer (Invitrogen), then distributed in microplates at a density of 3×10^4 cells/well. The fluorescent probe (Fluo4 Direct, Invitrogen) in HBSS buffer (Invitrogen) complemented with 20 mM Hepes (Invitrogen) (pH 7.4) is then added into each well and equilibrated with the cells for 60 min at 37° C. then 15 min at 22° C. Thereafter, the assay plates are positioned in a microplate reader (CellLux, PerkinElmer) which is used for the addition of the test compound, reference agonist or HBSS buffer (basal control), and the measurements of changes in fluorescence intensity which varies proportionally to the free cytosolic Ca2+ ion concentration. For stimulated control measurements, Icilin at 3 μM is added in separate assay wells. The results are expressed as a percent of the control response to 3 μM icilin. The standard reference agonist is Icilin, which is tested in each experiment at several concentrations to generate a concentration-response curve from which its EC50 value is calculated. (Behrendt, H. J., Germann, T., Gillen, C and Hatt, H. and Jostock, R. (2004), Characterization of the mouse cold-menthol receptor TRPM8 and vanilloid receptor type-1 VR1 using a fluorometric imaging plate reader (FLIPR) assay, Br. J. Pharmacol., 141: 737.)
# Data analysis: EC50 values were determined as the concentration of test substance required to produce half-maximal increases in [Ca^2+]. Maximal [Ca^2+] responses were measured as peak fluorescence intensity (FI) minus basal FI, and expressed as percentages of the maximum response to icilin. Data are given as means±s.e.m., unless otherwise stated.
# The EC50 values (concentration producing a half-maximal response) and IC50 values (concentration causing a half-maximal inhibition of the control agonist response) were determined by non-linear regression analysis of the concentration-response curves generated with mean replicate values using Hill equation curve fitting:
# where Y=response, A=left asymptote of the curve, D=right asymptote of the curve, C=compound concentration, and C50=EC50, and nH=slope factor.
# [3] = Solubility assay in DI water; type: physicochemical; conditions: thermodynamic from solid, HCl salts, visual, stepwise dilution from 200 mg/mL, sonication and vortex
# Description: In order to determine the aqueous solubility of the compounds indicated, the HCl salts of the following compounds were incubated at 200 mg/mL in DI water followed by sonication for 60 seconds and then vortex stirring for 60 seconds. If insoluble material was observed, the sample was diluted to 150, 100, 50, 25, or 20 mg/mL until no insoluble material was observed. After each dilution, each sample was sonicated for 60 seconds, vortexed for 60 seconds and let equilibrate with occasional shaking for 30 minutes.
# [4] = pH = ~5.0 (0.2 M aqueous sodium citrate/citric acid buffer)
# [5] = pH = ~7.4 (1X Phosphate Buffered Saline)
# [6] = Ca2+ mobilization, fluorometric detection, 293H cells, response relative to 3 μM icilin, read-out: TRPM8 agonist EC50
SMILES,"EC50 [2, 6] [nM]",also measured
CC(C)[C@@H]1CC[C@@H](C)C[C@H]1OC(=O)Nc1cccc(CN)c1 [Aniline 1],–,"% degradation at 28 days [1, 4]: ~36.2%; % degradation at 28 days [1, 5]: ~41.2%"
CC(C)[C@@H]1CC[C@@H](C)C[C@H]1OC(=O)N(C)c1cccc(CN)c1 [Aniline 2],–,"% degradation at 28 days [1, 4]: ~24.3%; % degradation at 28 days [1, 5]: ~24.4%"
CC(C)[C@@H]1CC[C@@H](C)C[C@H]1OCC(=O)N(C)c1cccc(CN)c1 [Aniline 3],–,"aqueous stability / hydrolysis, comparison in words [1]: more stable; % degradation at 28 days [1, 4]: ~0.4%; % degradation at 28 days [1, 5]: ~8.1%"
CC(C)[C@@H]1CC[C@@H](C)C[C@H]1C(=O)N(C)c1cccc(CN)c1 [Aniline 4],–,"% degradation at 28 days [1, 4]: ~23.5%; % degradation at 28 days [1, 5]: ~31.9%"
"CC(C)[C@@H]1CC[C@@H](C)C[C@H]1C(=O)N(C)Cc1cccc(CN(C)C)c1.Cl [Compound 3, (1R,2S,5R)-N-(3-((dimethylamino)methyl)benzyl)-2-isopropyl-N,5-dimethylcyclohexanecarboxamide hydrochloride]",752,"aqueous stability / hydrolysis, comparison in words [1]: greatest aqueous stability; % degradation at 28 days [1, 4]: Noneª None^b; % degradation at 28 days [1, 5]: Noneª None^b"
"CC(C)[C@@H]1CC[C@@H](C)C[C@H]1C(=O)NCc1ccc(CNC(=O)CN)cc1 [Compound 7, (1R,2S,5R)-N-(4-((2-aminoacetamido)methyl)benzyl)-2-isopropyl-5-methylcyclohexanecarboxamide hydrochloride]",511,–
"CC(C)[C@@H]1CC[C@@H](C)C[C@H]1C(=O)NCc1ccc(N2CCNCC2)cc1.Cl.Cl [Compound 10, (1R,2S,5R)-2-isopropyl-5-methyl-N-(4-(piperazin-1-yl)benzyl)cyclohexanecarboxamide dihydrochloride]",110,solubility at 30 min [3]: ≥ 200 mg/mL
"CC(C)[C@@H]1CC[C@@H](C)C[C@H]1C(=O)NCc1ccc(CCN)cc1 [Compound 12, (1R,2S,5R)-N-(4-(2-aminoethyl)benzyl)-2-isopropyl-5-methylcyclohexanecarboxamide hydrochloride]",198,–
"CC(C)[C@@H]1CC[C@@H](C)C[C@H]1C(=O)NCc1ccc(CN2CCNCC2)cc1.Cl.Cl [Compound 15, (1R,2S,5R)-2-isopropyl-5-methyl-N-(4-(piperazin-1-ylmethyl)benzyl)cyclohexanecarboxamide dihydrochloride]",–,EC50 [2]: 79 nM; solubility at 30 min [3]: ≥ 200 mg/mL
"CC(C)[C@@H]1CC[C@@H](C)C[C@H]1C(=O)NCc1ccc(C2CCNCC2)cc1.Cl [Compound 16, (1R,2S,5R)-2-isopropyl-5-methyl-N-(4-(piperidin-4-yl)benzyl)cyclohexanecarboxamide hydrochloride]",345,solubility at 30 min ([3]; DI water): ≥ 20 mg/mL
"CC(C)[C@@H]1CC[C@@H](C)C[C@H]1C(=O)NCc1cc(CN)ccn1 [Compound 17, (1R,2S,5R)-N-((4-(aminomethyl)pyridin-2-yl)methyl)-2-isopropyl-5-methylcyclohexanecarboxamide hydrochloride]",58,–
"CC(C)[C@@H]1CC[C@@H](C)C[C@H]1C(=O)NCc1ccc(COC2CCNCC2)cc1 [Compound 18, (1R,2S,5R)-2-isopropyl-5-methyl-N-(4-((piperidin-4-yloxy)methyl)benzyl)cyclohexanecarboxamide hydrochloride]",207,–
"CC(C)[C@@H]1CC[C@@H](C)C[C@H]1C(=O)NCc1ccc(CN2CCCC2)cc1 [Compound 20, (1R,2S,5R)-2-isopropyl-5-methyl-N-(4-(pyrrolidin-1-ylmethyl)benzyl)cyclohexanecarboxamide hydrochloride]",150,–
"CC(C)[C@@H]1CC[C@@H](C)C[C@H]1C(=O)NCc1ccc(CN(C)C)cc1 [Compound 21, (1R,2S,5R)-N-(4-((dimethylamino)methyl)benzyl)-2-isopropyl-5-methylcyclohexanecarboxamide hydrochloride]",421,–
"CC(C)[C@@H]1CC[C@@H](C)C[C@H]1C(=O)NCc1ccc(CN2CCOCC2)cc1 [Compound 22, (1R,2S,5R)-2-isopropyl-5-methyl-N-(4-(morpholinomethyl)benzyl)cyclohexanecarboxamide hydrochloride]",890,–

# More lines, main results first:
"EC50 [2, 6] [nM]",SMILES,also measured
973,"CC(C)[C@@H]1CC[C@@H](C)C[C@H]1OCC(=O)N(C)Cc1cccc(CN(C)C)c1 [Compound 1, N-(3-((dimethylamino)methyl)benzyl)-2-(((1R,2S,5R)-2-isopropyl-5-methylcyclohexyl)oxy)-N-methylacetamide hydrochloride]",–
3310,"CC(C)[C@@H]1CC[C@@H](C)C[C@H]1OCC(=O)NCc1ccc(CN)cc1 [Compound 2, N-(4-(aminomethyl)benzyl)-2-(((1R,2S,5R)-2-isopropyl-5-methylcyclohexyl)oxy)acetamide hydrochloride]",–
220,"CC(C)[C@@H]1CC[C@@H](C)C[C@H]1C(=O)NCc1cccc(N2CCNCC2)c1 [Compound 5, (1R,2S,5R)-2-isopropyl-5-methyl-N-(3-(piperazin-1-yl)benzyl)cyclohexanecarboxamide dihydrochloride]",–
377,"CC(C)[C@@H]1CC[C@@H](C)C[C@H]1C(=O)NCc1cccc(N2CCN(C(=O)CN)CC2)c1 [Compound 6, (1R,2S,5R)-N-(3-(4-(2-aminoacetyl)piperazin-1-yl)benzyl)-2-isopropyl-5-methylcyclohexanecarboxamide dihydrochloride]",–
> 10000,"CC(C)[C@@H]1CC[C@@H](C)C[C@H]1C(=O)NCc1ccccc1N1CCN(C(=O)CN)CC1 [Compound 9, (1R,2S,5R)-N-(2-(4-(2-aminoacetyl)piperazin-1-yl)benzyl)-2-isopropyl-5-methylcyclohexanecarboxamide dihydrochloride]",–
170,"CC(C)[C@@H]1CC[C@@H](C)C[C@H]1C(=O)NCc1ccc2c(c1)CCNC2 [Compound 11, (1R,2S,5R)-2-isopropyl-5-methyl-N-((1,2,3,4-tetrahydroisoquinolin-6-yl)methyl)cyclohexanecarboxamide hydrochloride]",–
153,"CC(N)c1ccc(CNC(=O)[C@@H]2C[C@H](C)CC[C@H]2C(C)C)cc1 (stereo partly drawn) [Compound 13, (1R,2S,5R)-N-(4-(1-aminoethyl)benzyl)-2-isopropyl-5-methylcyclohexanecarboxamide hydrochloride]",–
96,"CC(C)[C@@H]1CC[C@@H](C)C[C@H]1C(=O)NCc1ccc(CN)cc1F [Compound 14, (1R,2S,5R)-N-(4-(aminomethyl)-2-fluorobenzyl)-2-isopropyl-5-methylcyclohexanecarboxamide hydrochloride]",–
34800,"CC(C)[C@@H]1CC[C@@H](C)C[C@H]1C(=O)NCc1ccc(CN(C)Cc2ccccc2)cc1 [Compound 19, (1R,2S,5R)-N-(4-((benzyl(methyl)amino)methyl)benzyl)-2-isopropyl-5-methylcyclohexanecarboxamide hydrochloride]",–
